According to publication PMC9866728, “Dosing Methods to Enable Cell-Based In Vitro Testing of Complex Substances: A Case Study with a PAH Mixture” (Toxics, 2022):
Several values for one entry are separate records, joined by “and”; a condition that tells them apart may be missing. Equal values may be shown once. Read-outs that look alike come from different tables or passages of the source.

Experiments:
[1] = Loading kinetics of silicone micro-O-rings from methanol PAH solution (GC-MS/MS); format: physicochemical
[2] = Recovery over time from exposure to cell culture media without cells (GC-MS/MS); format: physicochemical
[3] = Table S1; ref PubChem; cited from earlier work
[4] = O-ring loading rate constant, larger O-rings; ref Smith et al. 2010 [24]; cited from earlier work
[5] = Smith et al. O-Rings; ref Smith et al. 2010 [24]; cited from earlier work
[6] = loading rate constant, one-phase association (h^-1), 10 µg/mL PAH mix in methanol
[7] = one-phase association fit of nominal Csilicone (µg/mL per Eq 1), 10 µg/mL PAH mix in methanol
[8] = one-phase association fit of nominal Csilicone, 10 µg/mL PAH mix in methanol, 0-24 h
[9] = one-phase association fit, micro-O-ring absorption
[10] = MAF (400 ng/mL each PAH), one phase decay fit of nominal recovery
[11] = MAF (400 ng/mL each PAH), one phase decay fit of nominal recovery (text: ng/mL)
[12] = O-Rings (loaded in 10 µg/mL PAH solution), one phase association fit of nominal recovery
[13] = O-Rings, one phase association fit
[14] = O-Rings, one phase association fit (desorption into media)
[15] = Solvent Extract (DMSO, 15 ng/mL each PAH), one phase decay fit of nominal recovery
[16] = Solvent Extract (DMSO, 15 ng/mL each PAH), one phase decay fit of nominal recovery (text: ng/mL)
[17] = Solvent Extract, one phase decay fit

Structure (SMILES) | K Value [1, 6] | Plateau Value [1, 7] | Y0 [1, 8] | Half-time Value [1, 9] | Span Value [1, 9] | Tau Value [1, 9] | Y0 [2, 10] | Plateau [2, 11] | K ([2]; MAF, one phase decay fit) | Span ([2]; MAF, one phase decay fit) | Tau ([2]; MAF, one phase decay fit) | Plateau [2, 12] | Y0 [2, 12] | Half-time Value [1] | K Value [1] | Plateau Value [1] | Span Value [1] | Tau Value [1] | Y0 [1] | Half-time [2] | further results
Cc1cccc2ccccc12 [1-Methylnaphthalene] | 26.6865 | 0.8912 | 0 | 0.02597 | 0.8912 | 0.03747 | 399.6 | 37.1 | 1.206 | 362.5 | 0.8293 | 1.035 | -0.0496 |  |  |  |  |  |  |  | best-fit rate constants (micro-O-ring loading) ([1]; loading from methanol solution): 26.7 h⁻¹; Half-time [2, 13]: 1.691; Span [2, 13]: 1.085; Tau [2, 13]: 2.439; K [2, 14]: 0.41; Y0 [2, 15]: 14.94; Plateau [2, 16]: 2.307; K [2, 17]: 0.9085; Span [2, 17]: 12.63; Tau [2, 17]: 1.101; LogKow (PubChem) [3]: 3.87
Cc1ccc2ccccc2c1 [2-Methylnaphthalene] |  |  |  |  |  |  |  |  |  |  |  |  |  | 0.02597 | 26.6855 | 0.8914 | 0.8914 | 0.03747 | 0 | 0.5872 | best-fit rate constants (micro-O-ring loading) [1]: 26.7 h⁻¹; K [2]: 1.206 and 1.18 and 0.9072; Tau [2]: 0.8294 and 0.8472 and 1.102
c1cc2c3c(cccc3c1)CC2 [Acenaphthene] | 22.38 | 0.8224 | 0 | 0.03097 | 0.8224 | 0.04468 | 398.6 | 44.72 | 0.9374 | 353.9 | 1.067 | 0.8203 | -0.03588 |  |  |  |  |  |  |  | Smith et al. 2010 K Value [4]: 1.8; Half-time [2, 13]: 2.678; Span [2, 13]: 0.8562; Tau [2, 13]: 3.863; K [2, 14]: 0.2589; Y0 [2, 15]: 14.88; Plateau [2, 16]: 2.58; K [2, 17]: 0.7259; Span [2, 17]: 12.3; Tau [2, 17]: 1.378; LogKow (PubChem) [3]: 3.92
C1=Cc2cccc3cccc1c23 [Acenaphthylene] | 22.7382 | 0.6656 | 0 | 0.03048 | 0.6656 | 0.04398 | 399.1 | 41.99 | 1.016 | 357.1 | 0.9842 | 0.6692 | -0.08033 |  |  |  |  |  |  |  | Half-time [2, 13]: 0.6114; Span [2, 13]: 0.7495; Tau [2, 13]: 0.882; K [2, 14]: 1.134; Y0 [2, 15]: 14.88; Plateau [2, 16]: 2.66; K [2, 17]: 0.7341; Span [2, 17]: 12.22; Tau [2, 17]: 1.362
c1ccc2cc3c(ccc4ccccc43)cc2c1 [Benzo[a]anthracene] |  |  |  |  |  |  |  |  |  |  |  |  |  | 4.451 | 0.1557 | 0.1684 | 0.1684 | 6.421 | 0 | 2.255 | Smith et al. 2010 K Value [4]: 1.38
c1ccc2c(c1)-c1cccc3c1c-2cc1ccccc13 [Benzo[b]fluoranthene] |  |  |  |  |  |  |  |  |  |  |  |  |  | 0.02358 | 29.3997 | 0.1089 | 0.1089 | 0.03401 | 0 | 1.392 | 
c1cc2ccc3ccc4ccc5cccc6c(c1)c2c3c4c56 [Benzo[g,h,i]perylene] |  |  |  |  |  |  |  |  |  |  |  |  |  | 0.01297 | 53.4605 | 0.06193 | 0.06193 | 0.01871 | 0 | 1.63 | 
c1ccc2cc3c(cc2c1)-c1cccc2cccc-3c12 [Benzo[k]fluoranthene] | 29.8778 | 0.1081 | 0 | 0.0232 | 0.1081 | 0.03347 | 386 | 124.5 | 0.2609 | 261.5 | 3.833 | 0.7223 | 0.005418 |  |  |  |  |  |  |  | Half-time [2, 13]: 1.391; Span [2, 13]: 0.7169; Tau [2, 13]: 2.006; K [2, 14]: 0.4984; Y0 [2, 15]: 15.74; Plateau [2, 16]: 4.199; K [2, 17]: 0.1008; Span [2, 17]: 11.54; Tau [2, 17]: 9.919; LogKow (PubChem) [3]: 6.11
c1ccc(-c2ccccc2)cc1 [Biphenyl] |  |  |  |  |  |  |  |  |  |  |  |  |  | 0.02096 | 33.0653 | 0.6997 | 0.6997 | 0.03024 | 0 | 0.591 | K [2]: 1.298 and 1.173 and 1.091; Tau [2]: 0.7703 and 0.8527 and 0.917
c1ccc2c(c1)ccc1c3ccccc3ccc21 [Chrysene] |  |  |  |  |  |  |  |  |  |  |  |  |  | 4.881 | 0.142 | 0.1581 | 0.1581 | 7.042 | 0 | 77098 | Smith et al. 2010 K Value [4]: 1.37
c1ccc2c(c1)ccc1cc3c(ccc4ccccc43)cc12 [Dibenzo[a,h]anthracene] |  |  |  |  |  |  |  |  |  |  |  |  |  | 3.094e-6 |  | 0.033 | 0.033 | 4.463e-6 | 0 | 1.539 | Smith et al. 2010 K Value [4]: 1.1
c1ccc2c(c1)-c1ccc3ccc4cccc5cc-2c1c3c45 [Indeno[1,2,3-cd]pyrene] |  |  |  |  |  |  |  |  |  |  |  |  |  | 0.01649 | 42.0316 | 0.0758 | 0.0758 | 0.02379 | 0 | 2.714 | 
c1ccc2ccccc2c1 [Naphthalene] | 33.9576 | 0.7013 | 0 | 0.02041 | 0.7013 | 0.02945 | 399.7 | 38.47 | 1.287 | 361.2 | 0.7773 | 1.084 | -0.1564 |  |  |  |  |  |  |  | K [5]: 3.55; Smith et al. 2010 K Value [4]: 2.38; Half-time [2, 13]: 0.378; Span [2, 13]: 1.24; Tau [2, 13]: 0.5454; K [2, 14]: 1.834; Y0 [2, 15]: 14.8; Plateau [2, 16]: 3.339; K [2, 17]: 0.6384; Span [2, 17]: 11.46; Tau [2, 17]: 1.566
c1cc2cccc3c4cccc5cccc(c(c1)c23)c54 [Perylene] |  |  |  |  |  |  |  |  |  |  |  |  |  | 0.02047 | 33.856 | 0.1047 | 0.1047 | 0.02954 | 0 | 1.656 | 
